Ends that are not written are not given here.
Assays:
[1] = system: E. coli ATCC25922
Method: (§1) The antimicrobial activity of the peptides were defined as the minimum inhibitory concentrations (MIC) according to the Clinical and Laboratory Standards Institute broth microdilution method as described previously. Briefly, 50 μL two-fold serial dilutions of peptides (with final concentrations ranging from 0 μM to 256 μM) and 50 μL bacterial fluids diluted with MHB were added to 96-well microtiter plates. The plates were then incubated at 37 °C for 18 h.
We assessed the salt stability, thermal stability, and enzymatic stability of the AMPs. Briefly, E. coli ATCC25922 was selected as the test bacterium. The control group was untreated peptides. Different concentrations of salts (150 mM NaCl, 4.5 mM KCl, 6 μM NH4Cl, 1 mM MgCl2, […], 8 mM […], 2.5 mM CaCl2, and 4 mM FeCl3) were added to the incubation buffer to examine the effect of each salt on the antimicrobial activities of the peptides. AMPs were treated for 1 h at 100 °C to test the thermal stability. AMPs were also treated with trypsin, pepsin, papain, and protease K at a concentration of 1 mg/mL for 1 h at 37 °C to test enzyme stability.

[2] = system: E. coli UB 1005; format: cell-based; details: UB 1005, 18 h
Method: (§2) The antimicrobial activity of the peptides were defined as the minimum inhibitory concentrations (MIC) according to the Clinical and Laboratory Standards Institute broth microdilution method as described previously [47]. Briefly, 50 μL two-fold serial dilutions of peptides (with final concentrations ranging from 0 μM to 256 μM) and 50 μL bacterial fluids diluted with MHB were added to 96-well microtiter plates. The plates were then incubated at 37 °C for 18 h.

[3] = system: Salmonella pullorum C 7913; format: cell-based; details: 18 h
[4] = system: E. coli ATCC 25922; format: cell-based; details: ATCC25922, 18 h
Method: as §2

[5] = system: Salmonella typhimurium C 7731; format: cell-based; details: murium C 7731, 18 h
Method: as §2

[6] = system: S. aureus ATCC 29213; format: cell-based; details: S. aureus ATCC 29213; MHB, 37 °C, 18 h; peptides 0-256 μM; triplicate samples
[7] = system: S. aureus ATCC 25923; format: cell-based; details: ATCC 25923, 18 h
[8] = system: S. epidermidis ATCC 12228; format: cell-based; details: ATCC 12228, 18 h
Method: as §2

[9] = system: E. coli ATCC25922; experiment: Flow cytometry, PI staining of membrane damage; format: cell-based; details: 30 min, 37 °C
Method: Flow cytometry can quantify the amount of cells with membrane damage as reported previously. Briefly, E. coli ATCC 25922 grown to the logarithmic phase were centrifuged and re-suspended to an OD600 nm of 0.2 in PBS (pH 7.4). The suspensions were mixed with each peptide at 1/2× MIC or 1× MIC and incubated for 30 min at 37 °C with constant shaking (140 rpm). The cells were then harvested by centrifugation, washed three times with PBS, and incubated with Propidium Iodide (PI) at a final concentration of […] for 30 min at 4 °C. Finally, the unbound dye was removed by washing with an excess amount of PBS. The data were recorded using fluorescence-activated cell sorting (Becton Dickinson, Franklin Lakes NJ, USA).

[10] = system: all microbial strains in this table; experiment: Geometric mean of MICs and therapeutic index; format: cell-based; details: nine strains of Table 2
[11] = system: Salmonella enterica subsp. CMCC 50071; details: MHB, 37 °C, 18 h, peptides 0-256 μM, triplicate samples
Method: as §1

[12] = system: Salmonella typhimurium ATCC 14028; format: cell-based; details: ATCC 14028, 18 h
Method: as §2

Question: Which “MIC after Papain” value ([1]; ATCC25922, 1 h) does the source give for FWRRWQWRRWF-NH2 [FW-WF] here?
Answer: 4 µM

Question: And the “MIC after Protease K” value ([1]; ATCC25922, 1 h)?
Answer: 16 µM

Question: And the “MIC following heating at 100 °C” value ([1]; ATCC25922, 1 h)?
Answer: 8 µM

Question: And the “MIC in the presence of Ca2+” value ([1]; ATCC25922, 18 h)?
Answer: 8 µM

Question: And the “MIC in the presence of Fe3+” value ([1]; ATCC25922, 18 h)?
Answer: 4 µM

Question: And the “MIC in the presence of K+” value ([1]; ATCC25922, 18 h)?
Answer: 4 µM

Question: And the “MIC in the presence of Mg2+” value ([1]; ATCC25922, 18 h)?
Answer: 4 µM

Question: What about the “MIC in the presence of NH4+” value ([1]; ATCC25922, 18 h) of the same substance?
Answer: 2 µM

Question: What about the “MIC in the presence of Na+” value ([1]; ATCC25922, 18 h) of the same substance?
Answer: 8 µM

Question: And the “MIC in the presence of Zn2+” value ([1]; ATCC25922, 18 h)?
Answer: 4 µM

Question: What about the “MIC, Control (enzymatic stability)” value ([1]; ATCC25922, 18 h) of the same substance?
Answer: 4 µM

Question: What about the “MIC, Control (salt stability)” value ([1]; ATCC25922, 18 h) of the same substance?
Answer: 4 µM

Question: What about the “MIC, Control (thermal stability)” value ([1]; ATCC25922, 18 h) of the same substance?
Answer: 4 µM

Question: And the “MIC after Pepsin” value ([1]; E. coli ATCC25922, peptide treated with 1 mg/mL pepsin, 1 h, 37 °C)?
Answer: >128 µM

Question: And the “MIC after Trypsin” value ([1]; E. coli ATCC25922, peptide treated with 1 mg/mL trypsin, 1 h, 37 °C)?
Answer: >128 µM

Question: What about the MIC [2] of the same substance?
Answer: 16 µM

Question: What about the MIC [3] of the same substance?
Answer: 8 µM

Question: What about the MIC [4] of the same substance?
Answer: 4 µM

Question: What about the MIC [5] of the same substance?
Answer: 16 µM

Question: What about the MIC [6] of the same substance?
Answer: >128 µM

Question: And the MIC [7]?
Answer: 16 µM

Question: And the MIC [8]?
Answer: 8 µM

Question: What about the “survival rates of the cells (no PI signal)” value ([9]; 1/2× MIC) of the same substance?
Answer: 82.5%

Question: What about the “survival rates of the cells (no PI signal)” value ([9]; 1× MIC) of the same substance?
Answer: 58.7%

Question: And the “GM (geometric mean of MIC values from all microbial strains)” value [10]?
Answer: 78.67 µM

Question: What about the MIC [11] of the same substance?
Answer: >128 µM

Question: And the MIC [12]?
Answer: 128 µM

— publication PMC6213309, “Antibacterial Activity and Mechanism of Action of Bovine Lactoferricin Derivatives with Symmetrical Amino Acid Sequences” (International Journal of Molecular Sciences, 2018)
